Data taken from patent US10179141B2, “Certain chemical entities, compositions, and methods” (Suzhou NeuPharma Co., Ltd., priority 2010, dated 2019).
pIC50: −log10 of the molar value. ≈ marks a conversion by molar mass, not a printed value.

How the values were obtained:
A549 cells = assay: Inhibition of cell growth in tumor cells, MTT assay, A549; assay type: cell-based; settings: Homo sapiens, 72 h compound exposure
Method: (§1) Inhibition of cell growth by compounds was measured using MTT assay (Mosmann, T., Journal of Immunological Methods, 1983, 65, 55-63). Tumor cell lines were purchased from ATCC (American Type Culture Collection, Manassas, Va.). All cell lines were maintained in RPMI 1640 (Hyclone) supplemented with 10% fetal bovine serum (FBS, Hyclone), glutamine (2 mM, Hyclone), and antibiotics (penicillin 100 U/mL and streptomycin 50 μg/mL) at 37° C. in a humidified atmosphere of 5% CO2 in air. Taxol (positive control, Sigma) and compounds were dissolved in DMSO (Sigma), and the final concentration of DMSO in the medium was 1%. Tumor cells were plated in 96-well plates at densities from 4000 cells/well of a 96-well plate and allowed to adhere/grow for 24 h. They were then treated with various concentrations of drug for 72 h. 3-(4,5-Dimethylthiazol-2-yl)-2,5-diphenyltetrazolium bromide (MTT, Sigma) was used to determine the number of viable cells at the time of compound addition and the number of cells remaining after 72 h compound exposure. The number of cells remaining after 72 h was compared to the number of viable cells at the time of compound addition by measuring the absorbance at 570 nm, allowing for the calculation of growth inhibition.
(§2) All concentrations of compounds were tested in triplicate and controls were averaged over 4 wells. IC50 was calculated by plotting the concentration of compound vs the percentage of inhibition in treated wells using GraphPad Prism 5.

[1] = Measurement of equilibrium solubility in aqueous buffer (HPLC UV); assay type: physicochemical; settings: aqueous NaOAc/AcOH buffer, thermodynamic from solid, NaOAc/AcOH buffer (100 mM, pH 5.0), shaken at rt for 24 h
Method: The equilibrium solubility of compounds is measured in aqueous buffer. Excess amount of solid compound is added into buffer solution and the sample is briefly sonicated and then shaken at rt for 24 h. The sample is filtered and the concentration is analyzed by HPLC UV. A standard solution at 0.2 mg/mL was prepared in methanol or acetonitrile for each compound and used as an external standard for quantification. Data for bufalin and four of the compounds specifically described herein in NaOAc/AcOH buffer (100 mM, pH 5.0) is shown below.

Bcap-37 cells = assay: Inhibition of cell growth in tumor cells, MTT assay, Bcap-37; assay type: cell-based; settings: Homo sapiens, Bcap37, 72 h compound exposure
Method: as §1, §2

tumor xenografts = assay: Inhibition of tumor growth in xenograft model; assay type: in vivo, BALB/c female nude mice; settings: 10 mg/kg, Q4D × 3, i.v.
Method: Cells were implanted in BALB/c female nude mice and grown as tumor xenografts. When tumors achieved 150-200 mm^3, mice were assigned into treatment and control groups using randomized block design based upon their tumor volumes. Each group contained 10 tumor-bearing mice. Tumors were measured twice weekly in two dimensions using a caliper, and the tumor volume was calculated from two-dimensional measurements using the equation V=0.5×a×b^2 where a and b are the long and short diameters of the tumor, respectively. The tumor volume was then used for calculations of T/C values. The T/C value was an indication of antitumor effectiveness; T and C were the mean volume of the treated and control groups, respectively, on a given day.

C[C@]12CC[C@H](OC(=O)NCCCC(=O)O)C[C@H]1CC[C@@H]1[C@@H]2CC[C@]2(C)[C@@H](c3ccc(=O)oc3)CC[C@]12O [4-(((((3S,5R,8R,9S,10S,13R,14S,17R)-14-hydroxy-10,13-dimethyl-17-(2-oxo-2H-pyran-5-yl)hexadecahydro-1H-cyclopenta[a]phenanthren-3-yl)oxy)carbonyl)amino)butanoic Acid]
pIC50 (A549 cells): 7.22

C[C@]12CC[C@H](OC(=O)OCCN3CCCC3)C[C@H]1CC[C@@H]1[C@@H]2CC[C@]2(C)[C@@H](c3ccc(=O)oc3)CC[C@]12O [(3S,5R,8R,9S,10S,13R,14S,17R)-14-hydroxy-10,13-dimethyl-17-(2-oxo-2H-pyran-5-yl)hexadecahydro-1H-cyclopenta[a]phenanthren-3-yl (2-(pyrrolidin-1-yl)ethyl) carbonate]
solubility at 24 h [1]: 710 µg/mL (≈ 1350 µM)
pIC50 (Bcap-37 cells): 7.97

C[C@]12CC[C@H](OC(=O)NCCN3CCCC3)C[C@H]1CC[C@@H]1[C@@H]2CC[C@]2(C)[C@@H](c3ccc(=O)oc3)CC[C@]12O [(3S,5R,8R,9S,10S,13R,14S,17R)-14-hydroxy-10,13-dimethyl-17-(2-oxo-2H-pyran-5-yl)hexadecahydro-1H-cyclopenta[a]phenanthren-3-yl (2-(pyrrolidin-1-yl)ethyl)carbamate]
solubility at 24 h [1]: 1040 µg/mL (≈ 1970 µM)
pIC50 (A549 cells): 8.55
pIC50 (Bcap-37 cells): 8.28

C[C@]12CC[C@H](OC(=O)OCCN3CCOCC3)C[C@H]1CC[C@@H]1[C@@H]2CC[C@]2(C)[C@@H](c3ccc(=O)oc3)CC[C@]12O [(3S,5R,8R,9S,10S,13R,14S,17R)-14-hydroxy-10,13-dimethyl-17-(2-oxo-2H-pyran-5-yl)hexadecahydro-1H-cyclopenta[a]phenanthren-3-yl (2-morpholinoethyl) carbonate]
pIC50 (A549 cells): 7.91

C[C@]12CC[C@H](OC(=O)NCCN3CCOCC3)C[C@H]1CC[C@@H]1[C@@H]2CC[C@]2(C)[C@@H](c3ccc(=O)oc3)CC[C@]12O [(3S,5R,8R,9S,10S,13R,14S,17R)-14-hydroxy-10,13-dimethyl-17-(2-oxo-2H-pyran-5-yl)hexadecahydro-1H-cyclopenta[a]phenanthren-3-yl (2-morpholinoethyl)carbamate]
pIC50 (A549 cells): 8.13

C[C@]12CC[C@H](OC(=O)N3CCOCC3)C[C@H]1CC[C@@H]1[C@@H]2CC[C@]2(C)[C@@H](c3ccc(=O)oc3)CC[C@]12O [(3S,5R,8R,9S,10S,13R,14S,17R)-14-hydroxy-10,13-dimethyl-17-(2-oxo-2H-pyran-5-yl)hexadecahydro-1H-cyclopenta[a]phenanthren-3-yl morpholine-4-carboxylate]
pIC50 (Bcap-37 cells): 6.65

C[C@]12CC[C@H](OC(=O)N3CCNCC3)C[C@H]1CC[C@@H]1[C@@H]2CC[C@]2(C)[C@@H](c3ccc(=O)oc3)CC[C@]12O [(3S,5R,8R,9S,10S,13R,14S,17R)-14-hydroxy-10,13-dimethyl-17-(2-oxo-2H-pyran-5-yl)hexadecahydro-1H-cyclopenta[a]phenanthren-3-yl piperazine-1-carboxylate]
solubility at 24 h [1]: 840 µg/mL (≈ 1680 µM)
pIC50 (A549 cells): 8.74

CC(C)[C@@H](N)C(=O)O[C@H]1CC[C@@]2(C)[C@H](CC[C@@H]3[C@@H]2CC[C@]2(C)[C@@H](c4ccc(=O)oc4)CC[C@]32O)C1 [(R)-(3S,5R,8R,9S,10S,13R,14S,17R)-14-hydroxy-10,13-dimethyl-17-(2-oxo-2H-pyran-5-yl)hexadecahydro-1H-cyclopenta[a]phenanthren-3-yl 2-amino-3-methylbutanoate]
pIC50 (A549 cells): 6.83

CC(C)C[C@@H](N)C(=O)O[C@H]1CC[C@@]2(C)[C@H](CC[C@@H]3[C@@H]2CC[C@]2(C)[C@@H](c4ccc(=O)oc4)CC[C@]32O)C1 [(R)-(3S,5R,8R,9S,10S,13R,14S,17R)-14-hydroxy-10,13-dimethyl-17-(2-oxo-2H-pyran-5-yl)hexadecahydro-1H-cyclopenta[a]phenanthren-3-yl 2-amino-4-methylpentanoate]
pIC50 (A549 cells): 7.23

C[C@@H](N)C(=O)O[C@H]1CC[C@@]2(C)[C@H](CC[C@@H]3[C@@H]2CC[C@]2(C)[C@@H](c4ccc(=O)oc4)CC[C@]32O)C1 [(R)-(3S,5R,8R,9S,10S,13R,14S,17R)-14-hydroxy-10,13-dimethyl-17-(2-oxo-2H-pyran-5-yl)hexadecahydro-1H-cyclopenta[a]phenanthren-3-yl 2-aminopropanoate]
pIC50 (A549 cells): 8.47

CC(C)[C@H](N)C(=O)O[C@H]1CC[C@@]2(C)[C@H](CC[C@@H]3[C@@H]2CC[C@]2(C)[C@@H](c4ccc(=O)oc4)CC[C@]32O)C1 [(S)-(3S,5R,8R,9S,10S,13R,14S,17R)-14-hydroxy-10,13-dimethyl-17-(2-oxo-2H-pyran-5-yl)hexadecahydro-1H-cyclopenta[a]phenanthren-3-yl 2-amino-3-methylbutanoate]
solubility at 24 h [1]: 120 µg/mL (≈ 247 µM)
pIC50 (Bcap-37 cells): 7.31

CC(C)C[C@H](N)C(=O)O[C@H]1CC[C@@]2(C)[C@H](CC[C@@H]3[C@@H]2CC[C@]2(C)[C@@H](c4ccc(=O)oc4)CC[C@]32O)C1 [(S)-(3S,5R,8R,9S,10S,13R,14S,17R)-14-hydroxy-10,13-dimethyl-17-(2-oxo-2H-pyran-5-yl)hexadecahydro-1H-cyclopenta[a]phenanthren-3-yl 2-amino-4-methylpentanoate]
pIC50 (A549 cells): 7.82

C[C@H](N)C(=O)O[C@H]1CC[C@@]2(C)[C@H](CC[C@@H]3[C@@H]2CC[C@]2(C)[C@@H](c4ccc(=O)oc4)CC[C@]32O)C1 [(S)-(3S,5R,8R,9S,10S,13R,14S,17R)-14-hydroxy-10,13-dimethyl-17-(2-oxo-2H-pyran-5-yl)hexadecahydro-1H-cyclopenta[a]phenanthren-3-yl 2-aminopropanoate]
pIC50 (Bcap-37 cells): 7.80

C[C@]12CCC(O)C[C@H]1CC[C@@H]1[C@@H]2CC[C@]2(C)[C@@H](c3ccc(=O)oc3)CC[C@]12O (some centres unmarked) [Bufalin, reference compound]
solubility at 24 h [1]: 41 µg/mL (≈ 106 µM)
pIC50 (A549 cells): 8.36
pIC50 (Bcap-37 cells): 7.85

CC(=O)O[C@H]1C(=O)[C@@]2(C)[C@H]([C@H](OC(=O)c3ccccc3)[C@]3(O)C[C@H](OC(=O)[C@H](O)[C@@H](NC(=O)c4ccccc4)c4ccccc4)C(C)=C1C3(C)C)[C@]1(OC(C)=O)CO[C@@H]1C[C@@H]2O [Paclitaxel]
T/C (tumor xenografts; mean tumor volume treated/control): 74.6%
Tumor Volume Post-treatment (tumor xenografts; nude mouse xenograft): 391 ± 43 mm^3
